Experimental findings from patent publication US20050054629A1, “Compounds and methods of treating cell proliferative diseases” (priority 2002, published 2005) are described below.

For data set [1], the system named is NIH3T3. As to the kind of experiment: Cytoskeleton analysis, actin staining (FITC-phalloidin). The format is cell-based, mouse. How it is done: Since major rearrangements of cytoskeleton are observed in tumor cells and since the small GTPases are known to regulate these events, analysis of actin cytoskeleton was performed. Subconfluent cells seeded onto coverslips were treated with different concentration of compound (1, 10, 17.5, 25 and 50 μM) or vehicle for 24 h, before being fixed in 4% formaldehyde for 15 min., permeabilized in 0.2% Triton X100 for 5 minutes and incubated in PowerBlock (Biogenex) for 10 min. Actin filaments were stained with 0.5 μg/ml fluorescein isothiocyanate (FITC)-labelled phalloidin for 1 hour. Analysis was performed using an inverted fluorescent microscope.

The test system of data set [2] is cell architecture. As to the kind of experiment: Cell architecture modification, phase contrast. The format is cell-based. More on the design: key: −: no effect of the compound was observed; +: an effect of the compound was observed.
The test system of data set [3] is HCT116 colon adenocarcinoma. As to the kind of experiment: Cytotoxicity assay (MTT), 6 days. To be noted: Homo sapiens, HCT-116, 144 h, 6 days of treatment, read-out: Toxicity 6d (IC 50, μM) HCT116. The format is cell-based, human. The source says: (§1) Four human tumoral cell lines, namely HCT116 colon adenocarcinoma, H460 lung carcinoma, MCF-7 and MDA-MB-231 breast carcinoma cell lines, and three immortalized but non tumorigenic cell lines, namely NIH3T3 mouse fibroblasts and human breast-derived MCF10-A and MRC-5 were purchased at ATCC and cultured according to their recommendations. In order to determine the cytotoxicity associated with one compound, a microculture tetrazolium assay (MTT), as described by Carmichael et al (Cancer Res, 1996) with modifications, was used. Briefly, 5.10^3 or 2.10^4 cells were seeded per well in 24-well plates 24 hours before drug addition. Cells were treated with 0, 1, 10, 17.5, 25 and 50 μM of compound solubilized in DMSO, adjusting the total volume of DMSO (Dimethylsulfoxide) to 1%. Forty-eight hours or 6 days after treatment, the medium was replaced by PBS containing 0.5 mg/ml MTT (Sigma) and cells were incubated for 3 more hours at 37° C. before solubilization of formazan crystals in 100% DMSO. Absorbance was measured using a spectrophotometer at a wavelength of 550 nm. Cell surviving fraction and 50% inhibitory concentration were calculated. All assays were performed in triplicate.

Data set [4] relates to NIH3T3 cells. As to the kind of experiment: Colony formation assay with constitutively activated Ras (RasV12) and Rac (RacV12). It counts as cell-based, mouse. On the set-up: key to Colony formation: −: no effect of the compound was observed; +: an effect of the compound was observed. How it is done: (§2) The impact of the compounds on Ras and Rac signaling pathways was analysed with two reporter systems described by Imler (Nature 1988) and Lin (Science, 1995) respectively on one hand, and by a colony formation assay in the presence of constitutively activated Ras (RasV12) and Rac (RacV12) on the other hand. For this latter experiment, fifty percent confluent NIH3T3 cells in a 10 cm diameter petri dish were transfected with 0.5 μg pSV2-RasV12 or 0.5 μg pEXV RacV12 plasmids plus 100 ng of pSV2-neomycin plasmid using Lipofectamine-Plus reagent (Invitrogen) according to the manufacturer's instructions. Forty-eight hours later, cells were trypsinised, splitted to ⅓, and incubated in the presence of complete medium supplemented with 400 μg/ml geneticin (Invitrogen) and different doses of compound (1, 10, 17.5, 25 and 50 μM) until emerging resistant clones appear (2-3 weeks). The medium was renewed every 3 days. Colonies with a minimum of 50 cells were counted after staining with Fuschin 2%.

The test system of data set [5] is H460 lung carcinoma. As to the kind of experiment: Cytotoxicity assay (MTT), 6 days. The format is cell-based. To be noted: Homo sapiens, NCI-H460, 144 h, 6 days of treatment, read-out: Toxicity 6d (IC 50, μM) H460.
From the text: as §1

Data set [6] has as its system MCF-7 breast carcinoma. As to the kind of experiment: Cytotoxicity assay (MTT), 6 days. It counts as cell-based. To be noted: Homo sapiens, MCF7, 144 h, 6 days of treatment, read-out: Toxicity 6d (IC 50, μM) MCF7.
From the text: as §1

Data set [7] relates to MDA-MB-231 breast carcinoma. As to the kind of experiment: Cytotoxicity assay (MTT), 6 days. The format is cell-based. To be noted: Homo sapiens, MDA-MB-231, 144 h, 6 days of treatment, read-out: Toxicity 6d (IC 50, μM) MDA231.
From the text: as §1

Data set [8] has as its system Ras. As to the kind of experiment: Ras-dependant signaling pathway analysis (reporter system). The format is cell-based. On the set-up: key: −: no effect of the compound was observed; +: an effect of the compound was observed. How it is done: as §2
Data set [9] concerns HCT116 cells. As to the kind of experiment: Anchorage-independent growth assay (soft agar / Matrigel). It counts as cell-based, human. To be noted: Homo sapiens, HCT-116, 168 h; HCT116, 3-dimensional growth, 1 week. On the procedure: In order to evaluate the effect of the compounds on the capacity of tumor cells to grow without anchorage, HCT116 cells were seeded either in agar or in Matrigel (BD, France). For 3D growth experiment in soft agar in 24-well plates, 5.10^3 HCT116 cells were resuspended in 250 μl of complete medium containing 0.3% soft-agar (Difco) and different concentrations of compound (0.1, 1, 10, 17.5, 25 and 50 μM). Cells were then poured on a solidified layer of medium containing 0.5% of soft-agar plus the compound at the same concentration than in the upper layer. Cells were incubated at 37° C. for 1 week before they were analysed using a phase contrast microscope (Nikon). For 3D growth experiment in Matrigel, 10^4 HCT116 cells were resuspended in 300 μl of complete medium containing 5 mg/ml Matrigel (BD, France) and different concentrations of compound (0.1, 1, 10, 17.5, 25 and 50 μM), and poured in 24-well plates. After solidification at 37° C. for 15 min., complete medium containing the compound was added to each well. Cells were incubated for 1 week before they were collected using Matrisperse (BD, France) according to the manufacturer's instructions. After recovery, alive cells were counted with trypan blue exclusion.

Data set [10] deals with NIH3T3 mouse fibroblasts. As to the kind of experiment: Cytotoxicity assay (MTT), 6 days. It counts as cell-based. To be noted: NIH3T3, 144 h, 6 days of treatment, read-out: Toxicity 6d (IC 50, μM) NIH3T3.
From the text: as §1

Data set [11] relates to MDA-MB-231 cells. As to the kind of experiment: Matrigel invasion assay (Boyden chamber). It counts as cell-based, human. To be noted: MDA-MB-231, Boyden chamber, matrigel. On the procedure:
Chemoinvasion assay was performed in Boyden chamber as described by Albini et al (Cancer Res, 1987) with some modifications. Polycarbonate membranes with 8 μm pores were coated with matrigel (125 μg/cm^2) at room temperature for 48 h. Two hours before experiments, the matrix was […] with serum-free medium containing 0.1% BSA.
One day after seeding, 10^6 MDA-MB-231 cells were treated overnight with different concentrations of compounds (1, 10, 17.5, 25 and 50 μM). Cells were collected with Versene (Invitrogen), counted with trypan blue exclusion, rinsed twice in serum-free medium containing 0.1% BSA and resuspended in serum-free medium containing 0.1% BSA plus the appropriate concentration of compound. 10^5 treated cells were placed in the upper chamber. Medium containing 10% of FBS plus the appropriate concentration of compound was placed in the lower chamber as a chemoattractant. The Boyden chamber was incubated 6 hours at 37° C. before the cells were fixed and stained with Diff-Quick (Dade-Berhing). Cells on the upper part of the filters were removed using a cotton swab. Cells on the underside of the filters were visualised and counted under light microscope.

For data set [12], the system named is HCT116. As to the kind of experiment: Cell viability assay (MTT), Example 32. It counts as cell-based, human. To be noted: for IC50: Homo sapiens, HCT-116, 144 h, day 6, 10% FBS. On the procedure: FIG. 7: Antiproliferative effect of compounds on HCT116 (top) and MDA-MB-231 (bottom) cell lines measured by MTT viability assay. 2.5 10^3 (HCT116) or 7.5 10^3 (MDA-MB-231) cells were seeded in 48-well plates in growth medium containing 10% FBS, with or without various concentrations of test compounds. Cell cultures were fed every 3 days with the appropriate media. Cell viability was determined on day 6. Data were analyzed and IC50s were calculated from the dose-response curves using GraphPad Prism.
In order to determine one compound effect on cell viability, microculture tetrazolium assay (MTT) was performed as described by Carmichael et al., (1996) with modifications. Four human tumoral cell lines, namely HCT116 colon adenocarcinoma, H460 lung carcinoma, MCF-7 and MDA-MB-231 breast carcinoma cell lines, and 3 immortalized but non tumorigenic cell lines, namely NIH3T3 mouse fibroblasts and human breast-derived MCF10-A and human lung-derived MRC-5 were purchased at ATCC and cultured according to their recommendations. Briefly, 2.5 10^3 to 2 10^4 cells per well were seeded in 48-well plates 24 hours before drug addition. Cells were treated with 0 to 200 μM (11 concentrations) of compound solubilized in DMSO, adjusting the final concentration of DMSO to 1% in the well. Six days after treatment, the medium was replaced by PBS containing 0.5 mg/ml MTT (Sigma) and cells were incubated for 1-3 hours at 37° C. before solubilization of formazan crystals in 100% DMSO. Absorbance was measured using a spectrophotometer at a wavelength of 550 nm. Data was analyzed using the GraphPad Prism software (GraphPad Software, Inc., San Diego, USA), and IC50 (dose leading to 50% cell death) was calculated from the dose-response curves.

As usually defined, the melting point is the temperature, or range, at which the solid turns liquid. Molecule `O=c1cc(CO)occ1OCCCCCOc1ccc(Cl)cc1` [EH15500, 5-[5-(4-Chlorophenyloxy)pentyloxy]-2-(hydroxymethyl)-4H-pyran-4-one] yielded a melting point of 95 to 97 °C. Further, in data set [1], the “general morphology of NIH3T3 cells, as detected by β-actin staining” value is recorded as “affected”. Also, the “Cell architecture modification actin staining (R: ruffles; FC: focal complexes) NIH3T3” value in [1] (24 h treatment) is reported as “cell destructuration”. Moreover, the “Cell architecture modification phase contrast” value in data set [2] was “+”. In addition, in data set [3], the IC50 is 50 µM. In addition, the Colony formation result in data set [4] is given as “−”. Moreover, the IC50 in [5] is 35 µM. For the same molecule, in [6], the IC50 was above 50 µM. For the same molecule, the IC50 in [7] is 15 µM. Moreover, in data set [8], the “Small GTPases activities Ras” value is recorded as “−”.
Regarding `C/C=C/c1oc(CO)cc(=O)c1OCCCCCOc1cccc(Cl)c1` [EH16201, (E)-3-[5-(3-Chlorophenyloxy)pentyloxy]-6-(hydroxymethyl)-2-(propen-1-yl)-4H-pyran-4-one], the IC50 is 50 µM in data set [3]; 12.5 µM in data set [9]; 25 µM in [10]; 20 µM in data set [5]; 25 µM in data set [6]; above 50 µM in data set [7].
`CCOc1ccccc1OCCCCCOc1coc(CO)cc1=O` [EH18601, 5-[5-(2-Ethyloxyphenyloxy)pentyloxy]-2-(hydroxymethyl)-4H-pyran-4-one]: in data set [2], the “Cell architecture modification phase contrast” value is recorded as “−”. Further, the IC50 in data set [3] was 50 µM; in data set [10] it was above 50 µM; in data set [5] it was 25 µM; in data set [6], 15 µM; in data set [7], above 50 µM. Further, the Invasion entry in data set [11] is reported as “No effect”.
With `C/C=C/c1oc(CO)cc(=O)c1OCCCCCOc1ccc(Cl)cc1` [EH26101, (E)-3-[5-(4-Chlorophenyloxy)pentyloxy]-6-(hydroxymethyl)-2(propen-1-yl)-4H-pyran-4-one], the IC50 is above 50 µM in [3]; 50 µM in [9]; 1 to 5 µM in [10]; 35 µM in [5]; above 50 µM in data set [6]; 40 to 45 µM in data set [7].
Take `C/C=C/c1oc(CO)cc(=O)c1OCCCCCOc1ccc(Cl)c(Cl)c1` [EH30101]: the IC50 in [3] was 50 µM; in data set [9], 7.5 µM; in data set [10] it was 0.1 to 0.5 µM; in [5], 35 µM; in data set [6] it was 45 µM; in [7], 30 to 35 µM.
`O=c1cc(CO)occ1OCCCCCn1cnc2c(Cl)ncnc21` [EHT 0248, 5-[5-(6-Chloro-purin-9-yl)-pentyloxy]-2-hydroxymethyl-4H-pyran-4-one] gave an IC50 in [12] above 100 µM.
Turning to `C/C=C/c1oc(CO)cc(=O)c1OCCCCCOc1ccc(Cl)cc1CCC` [EHT 1405, (E)-3-[5-(4-chloro-2-propyl-phenoxy)-pentyloxy]-6-hydroxymethyl-2-propenyl-4H-pyran-4-one], the IC50 in [12] was 4 µM.
Turning to `O=C(NC1CCCCC1)OCc1cc(=O)c(OCCCCCn2ccc3ccccc32)co1` [EHT 6231, Cyclohexyl-carbamic acid 5-(5-indol-1-yl-pentyloxy)-4-oxo-4H-pyran-2-ylmethyl ester], in [12] (MTT, HCT116), the “IC50 fold higher as compared to compound EHT 7395” value is 2 fold.
In the case of `O=c1cc(COC2CCCCO2)occ1OCCCCCn1ccc2ccc(Cl)cc21` (stereo not shown) [EHT 8617, 5-[5-(6-Chloro-indol-1-yl)-pentyloxy]-2-(tetrahydro-pyran-2-yloxymethyl)-4H-pyran-4-one], the IC50 in data set [12] lay in the range of 1.5 to 4 µM.
On the same count and under the same terms, the same measure for `O=c1cc(CO)occ1OCCCCCN1CCc2ccccc21` [EHT 8650, 5-[5-(2,3-Dihydro-indol-1-yl)-pentyloxy]-2-hydroxymethyl-4H-pyran-4-one]: above 100 µM.
